In patent EP0104857A1, “Deoxyuridine compounds, methods for preparing them and their use in medicine” (BEECHAM GROUP PLC, priority 1982, dated 1984) one finds IC50 and MCC data, which are given here for eleven molecules.

Where two headings read alike, the source gives them in different places.

For series [1], the system named is Herpes simplex type 1 virus (HFEM strain). The series can be described thus: Plaque reduction assay in virus-infected Vero cells. The series is classed as cell-based. The conditions noted are these: Human alphaherpesvirus 1, 96 h, concentration causing 50% reduction in number of virus plaques, HSV-1 HFEM strain, 4 days incubation at 37 C, read-out: PDD50 (the source's name). On the procedure:
(§1) Vero (African Green Monkey Kidney) cells were grown to confluence in 24 well multidishes, each well being 1.6 cm in diameter. The cells were infected with Herpes simplex type 1 virus (HFEM strain) and overlaid with 0.5ml of 0.9% agarose (w/v) in maintenance medium. Test compounds prepared in maintenance medium in concentrations ranging from 100 to 0.03 pg/ml in half-log dilution steps, were added in 0.5ml volume. The virus infected cultures were then incubated at 37 °C for 4 days before fixing in 4% formaldehyde solution and staining with carbolfuchsin.
A general note: Plaque reduction counts the foci of infection that form in a cell layer.

Series [2] is described as follows: Cytotoxicity in the plaque reduction assay cultures. It is filed as cell-based, African Green Monkey. The conditions noted are these: monkey; minimum concentration of test compound which caused cytotoxicity; Vero cells, 4 days; highest concentration tested 100; read-out: MTD. The procedure: as §1

Consider `O=c1[nH]c(=O)n([C@H]2C[C@H](OC3CCCO3)[C@@H](COC3CCCO3)O2)cc1/C=C/Br` (stereo partly drawn) [Example 1, 5-(E-2-Bromovinyl)-2'-deoxy-3',5'-bis-O-(tetrahydrofuran-2-yl)uridine], for which the IC50 was found to be 9 µM in series [1] (molar units) and 4.3 µg/mL in series [1]. In addition, in series [2], the MCC at 96 h was greater than 100 µg/mL.
Consider `O=c1[nH]c(=O)n([C@H]2C[C@H](OC3CCCO3)[C@@H](CO)O2)cc1/C=C/Br` (stereo partly drawn) [Example 2, 5-(E-2-bromovinyl)-2'-deoxy-3'-O-(tetrahydrofuran-2-yl)uridine], for which the figures for the IC50 in series [1] (molar units) and in series [1] were 2.8 µM and 1.1 µg/mL, respectively. The MCC at 96 h in series [2] is greater than 100 µg/mL.
With `O=c1[nH]c(=O)n([C@H]2C[C@H](OC3CCCCO3)[C@@H](COC3CCCCO3)O2)cc1/C=C/Br` (stereo partly drawn) [Example 4, 5-(E-2-Bromovinyl)-2'-deoxy-3',5'-bis-O-(tetrahdropyropyran-2-yl)uridine], the values for the IC50 in series [1] (molar units) and in series [1] were 34 µM and 17 µg/mL, respectively. Besides, the MCC at 96 h in series [2] came to 100 µg/mL.
Taken in the same sequence, the figures for `O=c1[nH]c(=O)n([C@H]2C[C@H](OC3CCCCO3)[C@@H](CO)O2)cc1/C=C/Br` (stereo partly drawn) [Example 5, 5-(E-2-bromovinyl)-2'-deoxy-3'-O-(tetrahydropyran-2-yl)uridine] were 4.3 µM, 1.8 µg/mL and greater than 100 µg/mL.
For `O=c1[nH]c(=O)n([C@H]2C[C@H](O)[C@@H](COC3CCCCO3)O2)cc1/C=C/Br` (stereo partly drawn) [Example 6, 5-(E-2-bromo-vinyl) -2'-deoxy-5'-O-(tetrahydropyran-2-yl) uridine], the IC50 was 170 µM in series [1] (molar units) and 69 µg/mL in series [1]. For the same molecule, the MCC at 96 h in series [2] is greater than 100 µg/mL.
For `CCOC(CC)OC[C@H]1O[C@@H](n2cc(/C=C/Br)c(=O)[nH]c2=O)C[C@@H]1O` (stereo partly drawn) [Example 8, 5-(E-2-bromovinyl)-2'-deoxy-5'-O-(1-ethoxypropyl)uridine], the IC50 in series [1] (molar units) amounted to 15 µM; in series [1] it was 6.4 µg/mL. The MCC at 96 h in series [2] was greater than 100 µg/mL.
In the case of `O=c1[nH]c(=O)n([C@H]2C[C@H](OCOCc3ccccc3)[C@@H](COCOCc3ccccc3)O2)cc1/C=C/Br` [Example 10, 3',5'-Bis-O-benzoxmethl-5-(E-2-bromovinyl)-2'-deoxuridine], the IC50 in series [1] (molar units) was 126 µM; in series [1], 72 µg/mL. The MCC at 96 h in series [2] is greater than 100 µg/mL.
Regarding `O=c1[nH]c(=O)n([C@H]2C[C@H](O)[C@@H](COCOCc3ccccc3)O2)cc1/C=C/Br` [Example 12, 5'-O-benzoxymethyl-5-(E-2-bromovinyl)-2'-deoxyuridine], the results for the IC50 in series [1] (molar units) and in series [1] were 15 µM and 6.6 µg/mL, respectively. Also, in series [2], the MCC at 96 h was greater than 100 µg/mL.
Taken in the same sequence, the figures for `CCOC(CCl)OC[C@H]1O[C@@H](n2cc(/C=C/Br)c(=O)[nH]c2=O)C[C@@H]1OC(CCl)OCC` (stereo partly drawn) [Example 19, 5-(E-2-Bromovinyl)-3',5'-bis-0-(2-chloro-1-ethoxyethyl)-2'-deoxyuridine] were 17 µM, 9.1 µg/mL and greater than 100 µg/mL.
With `CCOC(CCl)O[C@H]1C[C@H](n2cc(/C=C/Br)c(=O)[nH]c2=O)O[C@@H]1CO` (stereo partly drawn) [Example 20, 5-(E-2-bromovinyl)-3'-O-(2-chloro-1-ethoxyethyl)-2^1-deoxyuridine], the IC50 was found to be 7.5 µM in series [1] (molar units) and 3.3 µg/mL in series [1]. Also, the MCC at 96 h in series [2] is greater than 100 µg/mL.
With `CCOC(CCl)OC[C@H]1O[C@@H](n2cc(/C=C/Br)c(=O)[nH]c2=O)C[C@@H]1O` (stereo partly drawn) [Example 21, 5-(E-2-bromovinyl)-5'-0-(2-chloro-1-ethoxyethyl)-2'-deoxyuridine], the values for the IC50 in series [1] (molar units) and in series [1] were 43 µM and 19 µg/mL, respectively. For the same molecule, the MCC at 96 h in series [2] was greater than 100 µg/mL.
